This experiment has as its system SMN protein. As to the kind of experiment: cellular SMN ELISA (SMN protein elevation). Particulars: myoblast cell line derived from SMNdelta7 mouse model; 24 hours compound treatment; concentration range 100 pM-10 uM. The experiment is classed as cell-based. On the procedure:
A cellular SMN ELISA was used to measure the effects of low molecular weight compounds on SMN protein elevation. Cells from a myoblast cell line derived from the SMNdelta7 mouse model (kind gift from Steve Burden, NYU) were seeded into a 384-well plate at a density of 3000 cells/well and treated with compounds for 24 hours. ELISA capture plates were prepared by coating 384-well plates (Immulon 4HBX) with 0.5 ug/mL of anti-SMN mAb (BD Science, Catalog number 610647) at 4° C. overnight. The plates were washed 5 times with 110 uL of PBS-Tween (0.05% Tween-20, PBST), blocked with 100 uL of 1% BSA in PBST for 2 hours and washed (5 times) with 100 uL of PBST. After 24 hours of compound treatment cells were lysed in a modified RIPA-buffer, on ice for 1 hour. 20 uL of lysate and 20 uL of 1% BSA were then added to the ELISA capture plates and incubated at 4° C. overnight. Plates were washed (5 times) with PBST and then incubated with 1:100 dilution of primary rabbit anti-SMN polyclonal antibody (Santa cruz, Catalog number SC-15320) at room temperature for 1 hour and subsequently washed (5 times) with 110 uL of PBST. This was followed by addition of 1:100 Goat anti-Rabbit IgG-HRP linked (Cell Signaling, Catalog number 7074) secondary antibody for 1 hour. Plates were then washed with PBST and incubated with 40 uL TMB substrate (Cell Signaling, Catalog number 7004L) at room temperature for 1-10 minutes with shaking. The reaction was stopped by addition of 40 uL of stop solution (Cell signaling, Catalog number 7002L) and absorption was measured at 450 nm. Data was reported as fold activation over DMSO control and EC50. ELISA assay condition: compound concentration range 100 pM-10 uM.
For orientation: An ELISA detects its analyte on a solid surface through an enzyme-linked reagent.

Molecules are shown by their SMILES. Structures can show the parent of a compound that is named as a salt.

Data on 24 molecules can be found in US9040712B2, “Thiadiazole analogs thereof and methods for treating SMN-deficiency-related-conditions” (NOVARTIS AG, priority 2013, dated 2015).

In general, EC50 refers to the concentration giving half of the maximal effect. High values mean lower potency in that assay, low ones higher potency in that assay.

Turning to `CN(c1nnc(-c2c(O)cc(-c3cnn(C)c3)cc2Cl)s1)C1CC(C)(C)NC(C)(C)C1` [Example 26, 3-Chloro-2-(5-(methyl(2,2,6,6-tetramethylpiperidin-4-yl)amino)-1,3,4-thiadiazol-2-yl)-5-(1-methyl-1H-pyrazol-4-yl)phenol], the “SMN Activity Fold (fold activation over DMSO control)” value (“SMN Activity Fold” for short) was 2.26 fold.
`Cn1cc(-c2ccc(-c3nnc(NC4CC(C)(C)NC(C)(C)C4)s3)c(Cl)c2)cn1` [Example 27, 5-(2-chloro-4-(1-methyl-1H-pyrazol-4-yl)phenyl)-N-(2,2,6,6-tetramethylpiperidin-4-yl)-1,3,4-thiadiazol-2-amine]: the EC50 stood at 0.193 µM and the “SMN Activity Fold” value worked out at 2.48 fold.
For the molecule `COc1cc(-c2ncc(C)o2)cc(O)c1-c1nnc(N(C)C2CC(C)(C)NC(C)(C)C2)s1` [Example 28, 3-Methoxy-2-(5-(methyl(2,2,6,6-tetramethylpiperidin-4-yl)amino)-1,3,4-thiadiazol-2-yl)-5-(5-methyloxazol-2-yl)phenol], the EC50 was 0.02 µM and the “SMN Activity Fold” value is on record as 2.70 fold.
For `COc1cc(-n2cccn2)ccc1-c1nnc(C2=CCNCC2)s1` [Example 29, 2-(2-Methoxy-4-(1H-pyrazol-1-yl)phenyl)-5-(1,2,3,6-tetrahydropyridin-4-yl)-1,3,4-thiadiazole], the response was half-maximal at 0.879 µM (EC50) and the “SMN Activity Fold” value is recorded as 2.46 fold.
Take `Oc1cc(-n2cccn2)ccc1-c1nnc(N2CCNCC2)s1` [Example 30, 2-(5-(piperazin-1-yl)-1,3,4-thiadiazol-2-yl)-5-(1H-pyrazol-1-yl)phenol]: the midpoint of the response, the EC50, lay at 6.56 µM and the “SMN Activity Fold” value worked out at 1.98 fold.
For the molecule `COc1cc2ncccc2cc1-c1nnc(N(C)C2CC(C)(C)NC(C)(C)C2)s1` [Example 31, 5-(7-Methoxyquinolin-6-yl)-N-methyl-N-(2,2,6,6-tetramethylpiperidin-4-yl)-1,3,4-thiadiazol-2-amine], the midpoint of the response, the EC50, lay at 0.113 µM and the “SMN Activity Fold” value is on record as 2.43 fold.
Taken in the same sequence, the figures for `CN(c1nnc(-c2cc3cccnc3cc2O)s1)C1CC(C)(C)NC(C)(C)C1` [Example 32, 6-(5-(Methyl(2,2,6,6-tetramethylpiperidin-4-yl)amino)-1,3,4-thiadiazol-2-yl)quinolin-7-ol] were 0.256 µM and 2.48 fold.
Regarding `COc1cc(C#N)ccc1-c1nnc(N(C)C2CC(C)(C)NC(C)(C)C2)s1` [Example 33, 3-methoxy-4-(5-(methyl(2,2,6,6-tetramethyl-piperidin-4-yl)amino)-1,3,4-thiadiazol-2-yl) benzonitrile], the EC50 was determined as 1.04 µM and the “SMN Activity Fold” value was found to be 2.16 fold.
Take `CN(c1nnc(-c2ccc(C#N)cc2F)s1)C1CC(C)(C)NC(C)(C)C1` [Example 34, 3-fluoro-4-(5-(methyl(2,2,6,6-tetramethylpiperidin-4-yl)amino)-1,3,4-thiadiazol-2-yl)benzonitrile]: the EC50 is over 10 µM and the “SMN Activity Fold” value was found to be 2.32 fold.
Take `COC(=O)c1ccc(-c2nnc(N(C)C3CC(C)(C)NC(C)(C)C3)s2)c(F)c1` [Example 35, methyl 3-fluoro-4-(5-(methyl(2,2,6,6-tetramethyl-piperidin-4-yl)amino)-1,3,4-thiadiazol-2-yl) benzoate]: the EC50 came out at 0.864 µM and the “SMN Activity Fold” value is recorded as 2.81 fold.
Taken in the same sequence, the figures for `CNc1ccn(-c2ccc(-c3nnc(N(C)C4CC(C)(C)NC(C)(C)C4)s3)c(OC)c2)n1` [Example 36, 5-(2-methoxy-4-(3-(methylamino)-1H-pyrazol-1-yl)phenyl)-N-methyl-N-(2,2,6,6-tetramethyl-piperidin-4-yl)-1,3,4-thiadiazol-2-amine] were 0.163 µM and 2.15 fold.
The like results for `COc1cc2nc(C#N)ccc2cc1-c1nnc(N(C)C2CC(C)(C)NC(C)(C)C2)s1` [Example 37, 7-methoxy-6-(5-(methyl(2,2,6,6-tetramethyl-piperidin-4-yl)amino)-1,3,4-thiadiazol-2-yl) quinoline-2-carbonitrile] were, in that order, 0.078 µM and 2.19 fold.
For `COc1cc(-c2ccn(C)c(=O)c2)ccc1-c1nnc(OC2CC(C)(C)NC(C)(C)C2)s1` [Example 38, 4-(3-methoxy-4-(5-((2,2,6,6-tetramethyl-piperidin-4-yl)oxy)-1,3,4-thiadiazol-2-yl)phenyl)-1-methylpyridin-2(1H)-one], the EC50 was determined as 1.52 µM and the “SMN Activity Fold” value was 2.12 fold.
Consider `CN(c1nnc(-c2ccc(-c3ccn(C)c(=O)c3)cc2Cl)s1)C1CC(C)(C)NC(C)(C)C1` [Example 39, 4-(3-chloro-4-(5-(methyl(2,2,6,6-tetramethyl-piperidin-4-yl)amino)-1,3,4-thiadiazol-2-yl)phenyl)-1-methylpyridin-2(1H)-one], for which the EC50 was 0.05 µM and the “SMN Activity Fold” value is 2.31 fold.
The like results for `CN(c1nnc(-c2ccc(-c3cn[nH]c3)cc2Cl)s1)C1CC(C)(C)NC(C)(C)C1` [Example 40, 5-(2-chloro-4-(1H-pyrazol-4-yl)phenyl)-N-methyl-N-(2,2,6,6-tetramethylpiperidin-4-yl)-1,3,4-thiadiazol-2-amine] were, in that order, 0.034 µM and 2.55 fold.
As to `CN(c1nnc(-c2ccc(-c3cnn4c3CCCC4)cc2Cl)s1)C1CC(C)(C)NC(C)(C)C1` [Example 41, 5-(2-chloro-4-(4,5,6,7-tetrahydropyrazolo[1,5-a]pyridin-3-yl)phenyl)-N-methyl-N-(2,2,6,6-tetramethylpiperidin-4-yl)-1,3,4-thiadiazol-2-amine], the midpoint of the response, the EC50, lay at 0.507 µM and the “SMN Activity Fold” value turned out to be 2.44 fold.
`CN(c1nnc(-c2ccc(-c3cnn(C)c3)cn2)s1)C1CC(C)(C)NC(C)(C)C1` [Example 42, N-methyl-5-(5-(1-methyl-1H-pyrazol-4-yl)pyridin-2-yl)-N-(2,2,6,6-tetramethylpiperidin-4-yl)-1,3,4-thiadiazol-2-amine. Hydrochloride salt]: a half-maximal effect (EC50) was put at 0.675 µM and the “SMN Activity Fold” value came out at 2.32 fold.
With `Cn1cc(-c2ccc(-c3nnc(OC4CC(C)(C)NC(C)(C)C4)s3)c(Cl)c2)cn1` [Example 43, 2-(2-chloro-4-(1-methyl-1H-pyrazol-4-yl)phenyl)-5-((2,2,6,6-tetramethylpiperidin-4-yl)oxy)-1,3,4-thiadiazole], the EC50 was 0.446 µM and the “SMN Activity Fold” value was found to be 2.28 fold.
`COc1ccc(-c2ccc(-c3nnc(N(C)C4CC(C)(C)NC(C)(C)C4)s3)c(Cl)c2)cn1` [Example 44, 5-(2-chloro-4-(6-methoxypyridin-3-yl)phenyl)-N-methyl-N-(2,2,6,6-tetramethylpiperidin-4-yl)-1,3,4-thiadiazol-2-amine]: the EC50 was determined as 4.92 µM and the “SMN Activity Fold” value was determined as 2.26 fold.
For `CN(c1nnc(-c2ccc(-c3ccc(N)nc3)cc2F)s1)C1CC(C)(C)NC(C)(C)C1` [Example 45, 5-(4-(6-aminopyridin-3-yl)-2-fluorophenyl)-N-methyl-N-(2,2,6,6-tetramethylpiperidin-4-yl)-1,3,4-thiadiazol-2-amine], the midpoint of the response, the EC50, lay at 0.163 µM and the “SMN Activity Fold” value came to 2.26 fold.
For the molecule `Cc1cc(-c2ccc(-c3nnc(N(C)C4CC(C)(C)NC(C)(C)C4)s3)c(F)c2)[nH]n1` [Example 46, 5-(2-fluoro-4-(3-methyl-1H-pyrazol-5-yl)phenyl)-N-methyl-N-(2,2,6,6-tetramethylpiperidin-4-yl)-1,3,4-thiadiazol-2-amine], the EC50 stood at 0.122 µM and the “SMN Activity Fold” value is given as 2.32 fold.
Regarding `CN(c1nnc(-c2ccc(-c3ccn[nH]3)cc2F)s1)C1CC(C)(C)NC(C)(C)C1` [Example 47, 5-(2-fluoro-4-(1H-pyrazol-5-yl)phenyl)-N-methyl-N-(2,2,6,6-tetramethylpiperidin-4-yl)-1,3,4-thiadiazol-2-amine], the EC50 worked out at 0.152 µM and the “SMN Activity Fold” value was found to be 2.29 fold.
As to `CN(c1nnc(-c2ccc(-c3cn[nH]c3)c(F)c2F)s1)C1CC(C)(C)NC(C)(C)C1` [Example 48, 5-(2,3-difluoro-4-(1H-pyrazol-4-yl)phenyl)-N-methyl-N-(2,2,6,6-tetramethylpiperidin-4-yl)-1,3,4-thiadiazol-2-amine], the concentration for a half-maximal effect (EC50) turned out to be 0.033 µM and the “SMN Activity Fold” value is on record as 3.04 fold.
For `CN(c1nnc(-c2ccc(-c3ccn[nH]3)c(F)c2F)s1)C1CC(C)(C)NC(C)(C)C1` [Example 49, 5-(2,3-difluoro-4-(1H-pyrazol-5-yl)phenyl)-N-methyl-N-(2,2,6,6-tetramethylpiperidin-4-yl)-1,3,4-thiadiazol-2-amine], the EC50 is 0.081 µM and the “SMN Activity Fold” value was found to be 2.42 fold.
